# Columns and labels:
# NS90 = test: Growth progress in MOPS defined medium with different nitrogen sources; type: cell-based, Escherichia coli; details: strain NS90, 1 mM nitrogen source
# Experimental: (§1) Vector and strain construction was as described in Examples 1-4. All vectors contain the ampicillin resistance gene, and 100 ug/mL ampicillin was added to all culture medium. These strains were grown in MOPS defined medium with different nitrogen sources.
# (§2) Cultures were grown aerobically at 37° C. with 100 mg/L ampicillin. Pre-cultures were grown in LB media with 100 mg/L ampicillin, washed once with an equal volume of MOPS media containing no nitrogen, and inoculated at 5% v/v of the final fermentation volume. The content of the MOPS medium is outlined in Table 9.
# NS91 [1] = test: as above; type: cell-based, Escherichia coli; details: for growth with the compound as nitrogen source: control strain NS91, MOPS medium; for ammonium chloride concentration giving similar growth: strain NS91 (control), 0.25 mM as sole nitrogen source
# Experimental: as §1
# (§3) An average of all four strains grown on different ammonium chloride concentrations from 0 to 1.5 mM is also shown as a standard curve for growth with limiting nitrogen. NS91 grown on melamine is similar to the 0 mM ammonium chloride control.
# (§4) An average of all four strains grown on different ammonium chloride concentrations from 0 to 1.5 mM is also shown as a standard curve for growth with limiting nitrogen. NS91 grown on ammeline is similar to the 0 mM ammonium chloride control.
# as §2
# NS100 [2] = test: Optical density after 72 hours in defined YNB medium with different nitrogen sources; type: cell-based, Saccharomyces cerevisiae; details: strain NS100 (control)
# Experimental: (§5) Strains NS98, NS99, and NS100 were grown in defined YNB medium with 10 mM urea and 100 μg/mL hygromycin to stationary phase aerobically at 30° C. 1/1000 v/v inoculations were then made into the same defined medium with either 10 mM urea, 10 mM biuret, or no additional nitrogen and grown under the same conditions.
# as §5, with “Additionally, strains NS100, NS101, NS111,” for “Strains NS98, NS99,”, “NS112” for “NS100”, “cyanamide,” for “biuret,”
# NS99 = test: as above; type: cell-based, Saccharomyces cerevisiae; details: strain NS99, 10 mM nitrogen source, aerobic 30° C.
# Experimental: (§6) Strains NS98 and NS99 are industrial S. cereviaie strains carrying plasmids pNC96 (hyg^R, and a codon optimized trzE from Rhodococcus sp. MEL and pNC97 (hyg^R, and a codon optimized trzE from Rhizobium leguminosarum), respectively. Strain NS100 is the same industral S. cerevisiae stain carrying plasmid pNC67 (hyg^R, nat^R) which serves as a control strain.
# as §5
# NS98 = test: as above; type: cell-based, Saccharomyces cerevisiae; details: strain NS98, 10 mM nitrogen source, aerobic 30° C.
# Experimental: as §6, §5
# NS103 = test: Growth progress in MOPS defined medium with different nitrogen sources; type: cell-based, Escherichia coli; details: strain NS103, 0.25 mM as sole nitrogen source
# Experimental: as §1, §3, §4, §2
# NS93 = test: Maximum growth rate on ammeline as sole nitrogen source; type: cell-based, Escherichia coli; details: strain NS93, 0.5 mM ammeline as sole nitrogen source
# Experimental: (§7) Strains can also be selected for improved utilization of melamine derived nitrogen sources, in one example NS88 was passaged for 11 serial transfers in MOPS defined medium with 0.5 mM ammeline as sole nitrogen source. After the final passage, single colonies were isolated, and one was designated as NS93. NS93 and NS91 were grown overnight in medium with 0.5 mM ammonium chloride as sole nitrogen source, and then inoculated in medium with 0.5 mM ammeline as sole nitrogen source.
# NS91 [3] = test: as above; type: cell-based, Escherichia coli; details: strain NS91 (control), 0.5 mM ammeline as sole nitrogen source
# Experimental: as §7
# NS88 = test: Growth progress in MOPS defined medium with different nitrogen sources; type: cell-based, Escherichia coli; details: strain NS88, 1 mM nitrogen source
# Experimental: as §1, §2
# [4] = system: E. coli strains containing pNC121; test: Growth on melamine as sole nitrogen source (FIG. 18); type: cell-based, Escherichia coli; details: 0.5 mM; E. coli K12, MG1655, B and Crooks strains containing pNC121
# Experimental: FIGS. 16, 17, and 18 show E. coli strains derived from E. coli K12, E. coli MG1655, E. coli B, and E. coli Crooks (C) containing either pNC121 with the complete melamine utilization pathway, or pNC53, a control vector. See Tables 7 and 8 for strain details. All the strains containing pNC121 are able to grow on 0.5 mM melamine as sole nitrogen source (FIG. 18).
# as §2
# NS100 [5] = test: Growth progress in defined medium, 96 well plate (FIG. 21); type: cell-based, Saccharomyces cerevisiae; details: strain NS100 (control), 10 mM, YNB medium, 30° C.
# Experimental: (§8) The optical density of NS100 and NS101 grown in defined medium with different nitrogen sources was assessed as follows. NS100 and NS101 were grown overnight in YPD medium, washed once in an equal volume of sterile water, and inoculated at 3.33% v/v. […] Data are averages of 3 replicate wells in a 96 well plate; 150 μL per well. 30° C., YNB medium contained 20 g/L glucose, 1.7 g/L YNB base medium without amino acids or ammonium sulfate, 5 g/L sodium sulfate, 100 μg/mL hygromycin, and either 10 mM urea, 10 mM cyanamide, or no nitrogen source. Inoculation was with 5 μL of culture pregrown for 24 hours in the same medium with urea as nitrogen source (FIG. 21).
# NS101 [6] = test: as above; type: cell-based, Saccharomyces cerevisiae; details: strain NS101, 10 mM, YNB medium, 30° C.
# Experimental: as §8
# NS112 = test: Optical density after 72 hours in defined YNB medium with different nitrogen sources; type: cell-based, Saccharomyces cerevisiae; details: strain NS112 (control), 10 mM nitrogen source
# Experimental: as §5, with “Additionally, strains NS100, NS101, NS111,” for “Strains NS98, NS99,”, “NS112” for “NS100”, “cyanamide,” for “biuret,”
# NS101 [7] = test: as above; type: cell-based, Saccharomyces cerevisiae; details: strain NS101 (cah), 10 mM nitrogen source
# Experimental: as §5, with “Additionally, strains NS100, NS101, NS111,” for “Strains NS98, NS99,”, “NS112” for “NS100”, “cyanamide,” for “biuret,”
# NS111 = test: as above; type: cell-based, Saccharomyces cerevisiae; details: strain NS111 (cah), 10 mM nitrogen source
# Experimental: as §5, with “Additionally, strains NS100, NS101, NS111,” for “Strains NS98, NS99,”, “NS112” for “NS100”, “cyanamide,” for “biuret,”
# NS101 [8] = test: Growth in rich YPD medium with and without cyanamide (FIG. 24); type: cell-based, Saccharomyces cerevisiae; details: rich YPD medium with 10 mM cyanamide, 30° C.
# Experimental: The optical density of NS100 and NS101 grown in rich YPD medium with 100 μg/mL hygromycin and with and without 10 mM cyanamide was assessed as follows. NS100 and NS101 were grown overnight in YNB medium, and inoculated at 3.33% v/v. […] Thus, cyanamide, in addition to functioning as a sole source of nitrogen, may also act as a deterrent for microbial growth. Data are averages of 3 replicate wells in a 96 well plate; 150 μL per well. 30° C., YPD medium or YPD medium with 10 mM cyanamide. Inoculation was with 5 μL of culture pregrown for 24 hours in the YNB medium with urea as nitrogen source (FIG. 24).
# [9] = Table 10, 10 mM nitrogen source
# [10] = Table 11, 10 mM nitrogen source
Compound,growth with the compound as nitrogen source (NS91 [1]),Optical Density 600 nm (NS100 [2]; [9]),Optical Density 600 nm (NS99),Optical Density 600 nm (NS98),ammonium chloride concentration giving similar growth (NS91 [1]) [mM],Optical Density 600 nm (NS112),Optical Density 600 nm (NS101 [7]),Optical Density 600 nm (NS111),Optical Density 600 nm (NS100 [2]; [10]),other results
"NC(=O)NC(N)=O [biuret, Biuret]",does not grow,1.21,2.18,2.55,,,,,,ammonium chloride concentration giving comparable optical density (NS90): ~3 mM
"Nc1nc(N)[nH]c(=O)n1 [ammeline, Ammeline]",,,,,~0,,,,,ammonium chloride concentration giving similar growth (NS103): ~0.5 mM; maximum growth rate (NS93): 0.087 h⁻¹; maximum growth rate (NS91 [3]): 0.024 h⁻¹
"Nc1nc(N)nc(N)n1 [melamine, Melamine]",does not grow,,,,~0,,,,,ammonium chloride concentration giving comparable optical density (NS88): ~2 mM; growth on the compound as sole nitrogen source [4]: able to grow
"N#CN [cyanamide, Cyanamide]",,,,,,0.15,4.66,3.09,0.05,optical density reached (NS100 [5]): comparable to that with no nitrogen present in the medium; optical density reached (NS101 [6]): comparable to that with urea; lag phase of NS101 relative to NS100 (NS101 [8]): shorter lag phase
NC(N)=O [urea],,5.22,5.26,5.09,,3.05,3.60,3.68,3.12,
